Test results published in paper PMC3759295 (Toxicology letters, 2013).
Values joined by “and” are separate entries in the source; they are usually repeats but may differ in a detail not shown here. Equal entries are not always repeated.

Tests used:
CYP1A1 mRNA = CYP1A1 mRNA expression in primary human hepatocytes; format: cell-based; details: human
AhR [1] = target: T1, AhR (Homo sapiens, UniProt P35869); test: Gene reporter assay, transcriptional activity of AhR in AZ-AHR reporter cells; details: 10 µM and 50 µM, 24 h
T1 sequence (P35869 11-848): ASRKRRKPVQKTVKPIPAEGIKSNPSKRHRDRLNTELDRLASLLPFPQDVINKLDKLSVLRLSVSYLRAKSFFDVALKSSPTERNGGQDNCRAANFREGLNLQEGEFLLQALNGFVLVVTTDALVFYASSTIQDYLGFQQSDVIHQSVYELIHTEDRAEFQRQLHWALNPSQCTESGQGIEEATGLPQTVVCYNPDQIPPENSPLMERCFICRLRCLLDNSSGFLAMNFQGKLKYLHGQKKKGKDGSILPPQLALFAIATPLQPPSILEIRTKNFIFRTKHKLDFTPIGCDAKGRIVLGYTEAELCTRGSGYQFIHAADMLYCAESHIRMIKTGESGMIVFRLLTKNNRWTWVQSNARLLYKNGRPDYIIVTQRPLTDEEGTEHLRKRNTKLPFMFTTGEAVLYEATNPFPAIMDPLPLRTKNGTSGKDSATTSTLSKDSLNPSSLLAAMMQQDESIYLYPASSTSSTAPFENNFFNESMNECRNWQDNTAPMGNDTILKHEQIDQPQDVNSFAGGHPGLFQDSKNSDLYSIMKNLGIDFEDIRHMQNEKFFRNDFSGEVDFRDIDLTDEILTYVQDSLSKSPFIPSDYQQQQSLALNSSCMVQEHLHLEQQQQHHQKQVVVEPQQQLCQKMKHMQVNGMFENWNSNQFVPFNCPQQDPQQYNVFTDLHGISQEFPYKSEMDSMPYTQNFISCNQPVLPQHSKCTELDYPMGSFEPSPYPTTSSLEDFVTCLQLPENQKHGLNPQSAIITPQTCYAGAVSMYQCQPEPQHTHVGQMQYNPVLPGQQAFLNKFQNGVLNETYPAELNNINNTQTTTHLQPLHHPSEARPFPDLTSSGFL

[2] = tested on: CYP1A1 mRNA in LS174T cells; test: CYP1A1 mRNA expression in LS174T cells; details: 24 h
[3] = tested on: CYP1A1 mRNA in primary human hepatocytes; test: CYP1A1 mRNA expression in primary human hepatocytes; format: cell-based
AhR [4] = target: T2, AhR (Cavia porcellus, UniProt Q6J287); details: any tested concentration, 2 nM [3H]TCDD
T2 sequence (Q6J287 1-846): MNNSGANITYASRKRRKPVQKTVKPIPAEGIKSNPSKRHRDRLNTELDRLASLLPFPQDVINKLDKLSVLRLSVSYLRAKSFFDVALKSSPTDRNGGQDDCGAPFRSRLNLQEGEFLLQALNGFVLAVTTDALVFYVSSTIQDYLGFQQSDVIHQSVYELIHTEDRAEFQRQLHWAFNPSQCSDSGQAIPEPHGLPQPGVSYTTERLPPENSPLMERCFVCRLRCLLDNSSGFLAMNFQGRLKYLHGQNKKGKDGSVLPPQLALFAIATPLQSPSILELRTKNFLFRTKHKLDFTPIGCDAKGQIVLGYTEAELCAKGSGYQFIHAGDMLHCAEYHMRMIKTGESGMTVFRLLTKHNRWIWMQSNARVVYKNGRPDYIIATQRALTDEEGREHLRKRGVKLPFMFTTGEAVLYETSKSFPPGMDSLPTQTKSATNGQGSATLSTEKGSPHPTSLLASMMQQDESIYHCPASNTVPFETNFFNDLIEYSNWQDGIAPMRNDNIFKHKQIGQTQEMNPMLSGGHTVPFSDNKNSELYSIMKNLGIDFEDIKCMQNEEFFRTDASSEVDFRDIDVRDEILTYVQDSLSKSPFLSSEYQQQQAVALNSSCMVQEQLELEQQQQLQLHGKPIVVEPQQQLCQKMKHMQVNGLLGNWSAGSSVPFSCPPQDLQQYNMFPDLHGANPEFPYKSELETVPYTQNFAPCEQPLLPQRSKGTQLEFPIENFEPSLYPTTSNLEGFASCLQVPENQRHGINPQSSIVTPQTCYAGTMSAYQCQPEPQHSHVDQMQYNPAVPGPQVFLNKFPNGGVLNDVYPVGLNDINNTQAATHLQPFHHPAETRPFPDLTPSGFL

[5] = tested on: CYP1A1 protein in primary human hepatocytes; test: CYP1A1 protein in primary human hepatocytes; details: for induction of CYP1A1 protein: four different primary human hepatocytes cultures
[6] = tested on: CYP1A1 mRNA in HepG2 cells; test: CYP1A1 mRNA expression in HepG2 cells; details: 24 h
CYP1A1 [7] = target: T3, CYP1A1 (Homo sapiens, UniProt P04798); test: Enzyme activity of CYP1A1 in human liver microsomes; format: biochemical; details: 100 µM
T3 sequence (P04798 1-512): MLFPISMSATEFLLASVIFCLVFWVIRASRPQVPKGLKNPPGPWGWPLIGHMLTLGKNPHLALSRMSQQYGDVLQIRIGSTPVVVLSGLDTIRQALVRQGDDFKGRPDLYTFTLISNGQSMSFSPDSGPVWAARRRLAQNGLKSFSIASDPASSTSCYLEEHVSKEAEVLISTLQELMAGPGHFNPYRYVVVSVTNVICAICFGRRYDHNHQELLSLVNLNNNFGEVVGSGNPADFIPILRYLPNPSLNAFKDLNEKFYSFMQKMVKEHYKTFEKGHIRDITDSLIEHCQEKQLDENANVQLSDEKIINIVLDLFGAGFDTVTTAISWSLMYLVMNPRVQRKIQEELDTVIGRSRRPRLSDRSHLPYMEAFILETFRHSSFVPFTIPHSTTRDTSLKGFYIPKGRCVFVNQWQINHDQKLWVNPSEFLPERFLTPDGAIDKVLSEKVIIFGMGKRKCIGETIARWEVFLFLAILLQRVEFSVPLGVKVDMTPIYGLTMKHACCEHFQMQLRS

[8] = tested on: CYP1A1 protein in HepG2 cells; test: CYP1A1 protein in HepG2 cells; format: cell-based, human; details: HepG2, TCDD 5 nM, 48 h
[9] = tested on: CYP1A1 protein in LS174T cells; test: CYP1A1 protein in LS174T cells; format: cell-based, human; details: TCDD 5 nM, 48 h
CYP1A1 [10] = details: read-out: IC50, inhibition of CYP1A1; aglycons (anthocyanidins); ref Kamenickova et al. 2013; cited from earlier work
[11] = primary human hepatocytes (culture LH48 as printed)
[12] = male, primary human hepatocytes (culture LH45)
[13] = male, primary human hepatocytes (culture LH46)
[14] = male, primary human hepatocytes (culture LH47)

OC[C@H]1O[C@@H](Oc2cc3c(O)cc(O)cc3[o+]c2-c2ccc(O)c(O)c2)[C@H](O)[C@@H](O)[C@@H]1O [CYA-1, cyanidin-3-O-glucoside chloride]
fold induction at 24 h, 50 µM (CYP1A1 mRNA; [11]): 0.03 | fold induction at 24 h, 10 µM (CYP1A1 mRNA; [12]): 1.22 ± 0.04 | fold induction at 24 h, 50 µM (CYP1A1 mRNA; [12]): 0.73 ± 0.22 | fold induction at 24 h, 10 µM (CYP1A1 mRNA; [13]): 1.14 ± 0.2 | fold induction at 24 h, 50 µM (CYP1A1 mRNA; [13]): 1.04 ± 0.12 | fold induction at 24 h, 50 µM (CYP1A1 mRNA; [14]): 0.28 ± 0.01

OC[C@H]1O[C@@H](Oc2cc3c(O[C@@H]4O[C@H](CO)[C@@H](O)[C@H](O)[C@H]4O)cc(O)cc3[o+]c2-c2ccc(O)c(O)c2)[C@H](O)[C@@H](O)[C@@H]1O [CYA-3, cyanidin-3,5-di-O-glucoside chloride]
induction of luciferase activity (AhR [1]): concentration-dependent induction | level of CYP1A1 mRNA ([2]; 50 µM): significantly increased | fold induction at 24 h, 50 µM (CYP1A1 mRNA; [11]): 0.13 ± 0.03 | fold induction at 24 h, 10 µM (CYP1A1 mRNA; [12]): 0.68 ± 0.2 | fold induction at 24 h, 50 µM (CYP1A1 mRNA; [12]): 0.48 ± 0.07 | fold induction at 24 h, 10 µM (CYP1A1 mRNA; [13]): 2.21 ± 0.16 | fold induction at 24 h, 50 µM (CYP1A1 mRNA; [13]): 2.59 ± 0.09 | fold induction at 24 h, 50 µM (CYP1A1 mRNA; [14]): 0.45 ± 0.03 | induction of CYP1A1 mRNA ([3]; four different primary human hepatocytes cultures): Neither compound induced | displacement of radiolabelled TCDD from AhR (AhR [4]): did not displace | induction of CYP1A1 protein [5]: Neither compound induced | level of CYP1A1 mRNA ([6]; HepG2, 50 µM): significantly increased

COc1cc(-c2[o+]c3cc(O)cc(O)c3cc2O[C@@H]2O[C@H](CO)[C@@H](O)[C@H](O)[C@H]2O)cc(OC)c1O [MAL-1, malvidin-3-O-glucoside chloride]
fold induction at 24 h, 50 µM (CYP1A1 mRNA; [11]): 0.29 ± 0.03 | fold induction at 24 h, 10 µM (CYP1A1 mRNA; [12]): 1.13 ± 0.35 | fold induction at 24 h, 50 µM (CYP1A1 mRNA; [12]): 0.93 ± 0.11 | fold induction at 24 h, 10 µM (CYP1A1 mRNA; [13]): 2.34 ± 0.25 | fold induction at 24 h, 50 µM (CYP1A1 mRNA; [13]): 1.56 ± 0.23 | fold induction at 24 h, 50 µM (CYP1A1 mRNA; [14]): 0.14 ± 0.13

Oc1cc(O)c2c(c1)O[C@@]1(c3ccc(O)c(O)c3)Oc3cc(O)c4c(c3[C@@H]2[C@H]1O)O[C@H](c1ccc(O)c(O)c1)[C@H](O)C4 [PAC, proanthocyanidin A2]
induction of luciferase activity (AhR [1]): No significant induction

CC1OC(OCC2OC(Oc3cc4c(O)cc(O)cc4[o+]c3-c3ccc(O)cc3)C(O)C(O)C2O)C(O)C(O)C1O.[Cl-] (stereo not drawn) [PEL-2, pelargonidin-3-O-rutinoside chloride]
induction of luciferase activity (AhR [1]): concentration-dependent induction | CYP1A1 mRNA fold induction over the vehicle-treated cells, LH45 ([3]; hepatocyte culture LH45, 10 µM, 24 h): 0.87 ± 0.04 fold | CYP1A1 mRNA fold induction over the vehicle-treated cells, LH45 ([3]; hepatocyte culture LH45, 50 µM, 24 h): 0.24 ± 0.01 fold | CYP1A1 mRNA fold induction over the vehicle-treated cells, LH46 ([3]; hepatocyte culture LH46, 10 µM, 24 h): 2.66 ± 0.20 fold | CYP1A1 mRNA fold induction over the vehicle-treated cells, LH46 ([3]; hepatocyte culture LH46, 50 µM, 24 h): 2.39 ± 0.22 fold | CYP1A1 mRNA fold induction over the vehicle-treated cells, LH47 ([3]; hepatocyte culture LH47, 50 µM, 24 h): 0.61 ± 0.01 fold | CYP1A1 mRNA fold induction over the vehicle-treated cells, LH48 ([3]; hepatocyte culture LH48 (so in the source), 50 µM, 24 h): 0.60 ± 0.17 fold | induction of CYP1A1 mRNA ([3]; hepatocytes): Neither compound induced | induction of CYP1A1 protein [5]: Neither compound induced | CYP1A1 activity remaining, % of the initial activity (without anthocyanin) (CYP1A1 [7]): 79%

Clc1cc2c(cc1Cl)Oc1cc(Cl)c(Cl)cc1O2 [TCDD, 2,3,7,8-Tetrachlorodibenzo-p-dioxin]
levels of CYP1A1 protein [8]: strongly induced | levels of CYP1A1 protein [9]: strongly induced | induction of CYP1A1 mRNA ([2]; TCDD 5 nM, two independent experiments): 1003 fold and 724 fold | CYP1A1 mRNA fold induction over the vehicle-treated cells, LH45 ([3]; hepatocyte culture LH45, TCDD 5 nM, 24 h): 125.4 ± 17.7 fold | CYP1A1 mRNA fold induction over the vehicle-treated cells, LH47 ([3]; hepatocyte culture LH47, TCDD 5 nM, 24 h): 104.7 ± 13.4 fold | magnitude of induction of CYP1A1 mRNA, LH49 ([3]; hepatocyte culture LH49, TCDD, 24 h): 71 fold | levels of CYP1A1 protein ([5]; four human hepatocytes cultures, TCDD 5 nM, 48 h): strongly induced | induction of CYP1A1 mRNA ([6]; HepG2, TCDD 5 nM, two independent experiments): 322 fold and 216 fold

Oc1cc(O)c2cc(O)c(-c3cc(O)c(O)c(O)c3)[o+]c2c1 [delphinidin]
IC50 (CYP1A1 [10]): 77 µM

Oc1ccc(-c2[o+]c3cc(O)cc(O)c3cc2O)cc1 [pelargonidin]
IC50 (CYP1A1 [10]): 33 µM
